Experimental data taken from patent US11213495B2, “Method and composition for decreasing the psychotomimetic side effect and addictive disorder of ketamine” (NATIONAL HEALTH RESEARCH INSTITUTES, priority 2016, dated 2022).

Key:
Format in all cases: in vivo
[1] = system: Male ICR mice; assay: Forced swim test (FST): duration of immobility, struggling and swimming; conditions: DMG 30 mg/kg pretreatment prior to ketamine 10 mg/kg
Method: FST was conducted for two consecutive days. Mice were placed in a Plexiglas cylinder (33.5 cm height, 20 cm diameter) filled with 25±2° C. water to a height of 18-20 cm. For the first exposure, mice were placed in the water for 15 min (pre-test session) followed by […]. Twenty-four hours later (day 1 test session), various doses of test drug (at 0, 30 and 100 mg/kg) was administered 30 min prior to the ketamine (10 mg/kg) or saline. Then, the mice were tested 30 min after ketamine injection which placed in the water again for a 6 min session (test session), the first 2 minutes has elapsed. Immobility was assigned when no additional activity was observed other than that required to keep the head above the water.
This experiment included a control group and various doses of ketamine (3, 10, 15 mg/kg), betaine (10, 20, 30 mg/kg) and betaine (10, 20, 30 mg/kg) pretreatment prior to ketamine (fixed dose at 10 mg/kg). […] There was no significant effect of test session or interaction.

[2] = system: Male ICR mice; assay: Rotarod test (motor coordination); conditions: DMG 30 and 100 mg/kg prior to ketamine 30 mg/kg
Method: Motor coordination was examined using an automated rotarod device (Singa; Technology Co., Ltd, Taiwan) for a maximum of 6 mice. A computer recorded the latency to fall in seconds. During two-three days training period, the mice were first trained on the rotarod at a constant speed of 20 rotations per minute (rpm) until all of the mice were able to spend at least 3 min on the road. The test drug (0, 30 and 100 mg/kg) was administered 30 min prior to the ketamine (30 mg/kg) or saline injection. Then, the mice were tested 10, 15, 20, 25, and 30 min after ketamine injection.

[3] = system: Male ICR mice; assay: Prepulse inhibition test (PPI) of acoustic startle; conditions: DMG 100 mg/kg pretreatment, ketamine 30 mg/kg; p<0.001
Method: The PPI was operated as described in our previous work (Chan et al., 2012a). Briefly, the animals were initially moved from the home cage, weighed, and then placed into the restrainers in the SR-LAB (San Diego Instruments, San Diego, Calif., USA) acoustic startle chambers for 30-min habituation. The test drug (0, 30 and 100 mg/kg) was administered 30 min prior to ketamine (30 mg/kg) or saline injection. After administration of ketamine or saline, the experiment started with a 5-min adaptation period during which the animals were exposed to 67-dB background white noise, and this background noise was continued throughout the session. Then, the following adaptation period startle session began with five initial startle stimuli (120 dB bursts of white noise, 40 ms duration). After the first five initial stimuli, mice received five different trial types: pulse alone trials (120 dB bursts of white noise, 40 ms duration), three prepulse and pulse trials in which 76, 81, or 86 dB white noise bursts (9, 14, and 19 dB above background) of 20 ms duration preceded 120 dB pulse by 100 ms prepulse onset to pulse onset, and no-stimuli trials during which only background noise was applied. Each of these trial types was presented five times in randomized order. The inter trial interval was 7-23 s, and the test lasted 15 min in total. Prepulse inhibition was calculated as the percent inhibition of the startle amplitude evoked by the pulse alone: % PPI=(magnitude on pulse alone trial−magnitude on prepulse+pulse trial/magnitude on pulse alone trial)×100.

[4] = system: Male ICR mice; assay: Novel object recognition test (NORT); conditions: DMG 100 mg/kg pretreatment, ketamine 30 mg/kg; 24 h after sample phase
Method: (§1) The novel location recognition test (NLRT) and novel object recognition test (NORT) were examined in a Plexiglas open field box (35×35×30 cm) located in a sound-attenuated room and illuminated with a 20-W light bulb. The novel location and novel object recognition procedure consisted of habituation, training, and retention sessions. Habituation was conducted in two consecutive daily sessions, during which each mouse was allowed to individually explore the box in the absence of objects for 20 min. The animal is then removed from the arena and placed in its home cage. During the sample phase, each animal was placed in the box, and after 5 min, two identical sample objects (A+A) were simultaneously introduced in two corners. Each animal was allowed to explore the objects for 5 min. An animal was considered to explore the object when its head was facing the object at a distance of approximately 1 cm or less between the head and object or when it was touching or sniffing the object. The time spent exploring each object was recorded using stopwatches by an experimenter blind to the treatment condition.
After the sample phase, the mice were immediately returned to their home cages. The novel location recognition test was conducted 30 min after the training session. The animals were returned to the same box as during the sample phase, and one of the two objects was replaced with a novel local corner (A+A′) to test the location-based recognition memory. After 24 hours, novel object recognition test was performed. The mice are allowed to explore the open field with one identical sample object and a novel object to assess the novel object recognition memory (A+B). The animals were allowed to explore the box freely for 5 min, and the time spent exploring each object was recorded as described above. The objects and chambers were cleaned with 70% ethanol after each use. A preference index, a ratio of the amount of time spent exploring the original object or the novel location/object over the total time spent exploring both objects, was used to evaluate recognition memory. […]

[5] = system: Male ICR mice; assay: Novel location recognition test (NLRT); conditions: DMG 100 mg/kg pretreatment, ketamine 30 mg/kg; 30 min after sample phase
Method: as §1
After the sample phase, the mice were immediately returned to their home cages. […] The animals were allowed to explore the box freely for 5 min, and the time spent exploring each object was recorded as described above. […]

[6] = system: Male ICR mice; assay: Loss of righting reflex (LORR); conditions: DMG 100 and 300 mg/kg 30 min prior to ketamine 100 mg/kg
Method: The test drug betaine (0, 300, and 600 mg/kg) or DMG (0, 100 and 300 mg/kg) was administered 30 min prior to the anesthetic doses of ketamine (100 mg/kg). Then, the mice were placed in a clean cage until the righting reflex was lost. They were then placed in the supine position until recovery and the onset and duration of the loss of righting reflex was recorded. Recovery of the righting reflex was defined as the ability to perform three successive rightings.

[7] = system: Male ICR mice; assay: Open field test / locomotor activity; conditions: DMG 30 and 100 mg/kg pretreatment 30 min prior to ketamine 30 mg/kg
Method: To evaluate the effect of DMG on ketamine-induced locomotor hyperactivity, the animals were moved from the home cage, weighed and placed into an activity cage (Columbus Auto-Track System, Version 3.0 A, Columbus Institute, Columbus, Ohio, USA) for 2 hours. Thereafter, the test drug (0, 30, and 100 mg/kg) was given 30 min prior to ketamine (30 mg/kg) or saline. The distance (cm) traveled was recorded for totally 180 min. A 70% alcohol solution was used to clean the inner surface of all the testing apparatus between trials to remove any potentially interfering odors left by the previous mouse.

[8] = system: Male Sprague-Dawley rats; assay: Ketamine intravenous self-administration (IVSA) under progressive ratio (PR) schedule
Method: The dose-dependent effects of betaine and its metabolite DMG on ketamine addiction were evaluated by the intravenous self-administration (IVSA) paradigm under a progressive ratio (PR) schedule. Animals were implanted indwelling catheters flushing of ketamine (0.5 mg/kg/per infusion), termed the training dose, under a FR1 schedule during daily 3-h sessions. After acquisition of stable responding for ketamine (criterion of less than 20% deviation from the mean of the total number of reinforcers earned in three consecutive sessions for each rat), the ketamine reinforcement schedule was changed to FR2 and maintained until responding stabilized at least for 3 days. Then, the PR schedule was conducted. The lever presses required to gain an infusion was determined by: 5×e^(infusion number×0.2)−5 (i.e., 1, 2, 4, 6, 9, […], 15, 20, 25, 32, etc). […] The dose-dependent effects of betaine of self-administration of various doses of ketamine ([…]) were assessed by pretreatment 30 min prior to their daily operant session using a within-subject Latin square design.

[9] = system: Male ICR mice; assay: Forced swim test (FST): duration of immobility, struggling and swimming

SMILES: CN(C)CC(=O)O [DMG, N,N-dimethylglycine]
- duration of immobility in FST compared with ketamine (10 mg/kg) alone [1]: significantly shorter duration of immobility
- ketamine-induced motor in coordination [2]: significantly reduced
- ketamine-induced disruption of PPI [3]: significantly attenuated
- ketamine-induced recognition memory impairment in NORT [4]: significantly attenuated
- ketamine-induced recognition memory impairment in NLRT [5]: significantly attenuated
- duration of ketamine-induced loss of righting reflex [6]: did not affect
- onset of ketamine-induced loss of righting reflex [6]: did not affect
- ketamine-induced locomotor hyperactivity [7]: reduced
- reduction of cumulative responses by ketamine ([8]; DMG 100 mg/kg pretreatment, ketamine 0.3 mg/kg/infusion, PR schedule): 40%
- ketamine self-administration under PR schedule ([8]; DMG pretreatment): significantly decreased
- duration of immobility in FST ([9]; DMG 10, 20 and 30 mg/kg alone): significantly decreased
- duration of immobility in FST ([9]; DMG 10, 20 and 30 mg/kg pretreatment prior to ketamine 10 mg/kg): significantly decreased
